This passage reports IC50 results from patent US8124766B2, “Inhibitors of diacylglycerol acyltransferase” (Madrigal Pharmaceuticals, Inc., priority 2008, dated 2012).

SMILES strings stand for the structures.

As a reminder, the IC50 is the point on the concentration scale where inhibition reaches its midpoint.

This assay concerns DGAT. The assay can be described thus: DGAT Phospholipid FlashPlate Assay. Type of assay: biochemical. To be noted: DGAT pellet, DAG-coated PL-FlashPlate, 14C-Pal-CoA, 37° C. for 1 hour; read-out: DGAT Inhibition Activity IC50. The gist of the method: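 DGAT membrane pellet (0.13 mg protein/ml diluted stock) reacted 1 h at 37 °C with 14C-palmitoyl-CoA (8.3 μM diluted stock) on FlashPlates coated with 500 μM DAG, in Tris-HCl pH 7.5, 100 mM NaCl. Scintillation counts converted to % inhibition; IC50 by 4-parameter logistic fit.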
For `COc1cccc2c(C)c(C(=O)Nc3ccc(N4CCN(C(=O)[C@H]5CC[C@H](C(=O)O)CC5)CC4)cc3)[nH]c12` [Example 76, trans-4-(4-{4-[(7-Methoxy-3-methyl-1H-indole-2-carbonyl)-amino]-phenyl}-piperazine-1-carbonyl)-cyclohexanecarboxylic acid], the concentration for half-maximal inhibition (IC50) stood at 58 nM.
As to `COc1cccc2c(C)c(C(=O)Nc3ccc(C4CCN(C(=O)[C@H]5CC[C@H](C(=O)O)CC5)CC4)cc3)[nH]c12` [Example 77, trans-4-(4-{4-[(7-Methoxy-3-methyl-1H-indole-2-carbonyl)-amino]phenyl}-piperidine-1-carbonyl)-cyclohexanecarboxylic acid], the half-inhibitory concentration (IC50) came to 57 nM.
`CCOc1ccc2c(C)c(C(=O)Nc3ccc(N4CCN(C(=O)OC(C)(C)C)CC4)cc3)oc2c1OCC` [Example 78, 4-{4-[(6,7-Diethoxy-3-methyl-benzofuran-2-carbonyl)-amino]-phenyl}-piperazine-1-carboxylic acid tert-butyl ester]: the concentration for half-maximal inhibition (IC50) was 848 nM.
With `COCc1c(C(=O)Nc2ccc(N3CCN(C(=O)OC(C)(C)C)CC3)cc2)oc2ccccc12` [Example 79, 4-{4-[(3-Methoxymethyl-benzofuran-2-carbonyl)-amino]-phenyl}-piperazine-1-carboxylic acid tert-butyl ester], the IC50 worked out at 940 nM.
Then `CCOC(=O)N1CCC(Oc2ccc(NC(=O)c3oc4c(OCC)c(OCC)ccc4c3C)cc2)C1` (stereo not shown) [Example 80, 3-{4-[(6,7-Diethoxy-3-methyl-benzofuran-2-carbonyl)-amino]-phenoxy}-pyrrolidine-1-carboxylic acid ethyl ester], with 583 nM; and `CCOC(=O)N1CCC(Oc2ccc(NC(=O)c3oc4ccccc4c3COC)cc2)C1` (stereo not shown) [Example 81, 3-{4-[(3-Methoxymethyl-benzofuran-2-carbonyl)-amino]-phenoxy}-pyrrolidine-1-carboxylic acid ethyl ester], with 720 nM; and `COCCN(C)c1ccc(NC(=O)c2oc3c(F)cccc3c2C)cn1` [Example 82, 7-Fluoro-3-methyl-benzofuran-2-carboxylic acid {6-[(2-methoxy-ethyl)-methyl-amino]pyridin-3-yl}-amide], with 430 nM.
